The values below come from patent US20120309739A1, “AKT / PKB INHIBITORS” (ALMAC DISCOVERY LIMITED, priority 2009, published 2012).

Type in all cases: biochemical
Assay [1] addresses T1, AKT1 (Homo sapiens, UniProt P31749).
T1 construct: purchased SignalChem
The assay is described as follows: AKT Kinase Assay (IMAP fluorescent polarisation) vs AKT1. The note with it: activated AKT1, FAM Crosstide substrate. A digest of the protocol: (§1)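 IMAP fluorescence-polarisation read-out (485/528 nm) of 5′FAM-Crosstide phosphorylation; IC50 fitted by non-linear regression from % inhibition against vehicle. Fourteen-point half-log compound dilutions sat 45 min at room temperature with activated isoform at linear-range amount. ATP and substrate followed for 1 h, then a 1 h binding-reagent stop.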

Assay [2] addresses T2, AKT3 (Homo sapiens, UniProt Q9Y243).
T2 construct: purchased SignalChem
Nature of the assay: AKT Kinase Assay (IMAP fluorescent polarisation) vs AKT3. To be noted: activated AKT3, FAM Crosstide substrate. A digest of the protocol: as §1

Assay [3] addresses T3, AKT2 (Homo sapiens, UniProt P31751).
T3 construct: purchased SignalChem
The assay is described as follows: AKT Kinase Assay (IMAP fluorescent polarisation) vs AKT2. The note with it: activated AKT2, FAM Crosstide substrate. A digest of the protocol: as §1

Where a name gives a salt, the structure may show the parent alone. A value given as a limit tells only on which side of the number the result lay.

T2 sequence (Q9Y243 whole entry): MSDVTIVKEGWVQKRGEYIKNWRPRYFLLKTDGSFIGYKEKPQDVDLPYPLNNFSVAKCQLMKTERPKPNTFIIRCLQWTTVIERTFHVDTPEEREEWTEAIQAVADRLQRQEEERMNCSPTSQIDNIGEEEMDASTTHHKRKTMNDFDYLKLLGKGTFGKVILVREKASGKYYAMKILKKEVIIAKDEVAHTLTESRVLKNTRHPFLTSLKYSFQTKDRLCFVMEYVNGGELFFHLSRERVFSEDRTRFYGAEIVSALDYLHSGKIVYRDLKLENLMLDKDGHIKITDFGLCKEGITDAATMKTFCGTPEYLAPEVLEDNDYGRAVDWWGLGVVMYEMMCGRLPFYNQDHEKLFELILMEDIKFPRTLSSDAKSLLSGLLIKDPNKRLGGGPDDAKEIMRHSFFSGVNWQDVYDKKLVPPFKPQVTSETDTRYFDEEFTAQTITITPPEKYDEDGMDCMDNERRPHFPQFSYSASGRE
T1 sequence (P31749 whole entry): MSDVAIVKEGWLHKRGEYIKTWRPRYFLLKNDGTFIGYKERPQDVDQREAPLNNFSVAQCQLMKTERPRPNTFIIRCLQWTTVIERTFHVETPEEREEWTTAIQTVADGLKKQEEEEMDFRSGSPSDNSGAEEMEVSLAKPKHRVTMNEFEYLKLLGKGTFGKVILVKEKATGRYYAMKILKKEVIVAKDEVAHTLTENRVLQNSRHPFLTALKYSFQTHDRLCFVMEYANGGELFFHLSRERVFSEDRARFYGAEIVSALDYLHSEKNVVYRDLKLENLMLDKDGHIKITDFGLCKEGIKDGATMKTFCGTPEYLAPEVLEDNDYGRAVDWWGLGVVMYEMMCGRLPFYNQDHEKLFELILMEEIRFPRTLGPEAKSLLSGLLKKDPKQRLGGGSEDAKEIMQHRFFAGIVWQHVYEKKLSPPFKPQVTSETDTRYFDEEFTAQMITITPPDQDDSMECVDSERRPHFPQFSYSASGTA
T3 sequence (P31751 whole entry): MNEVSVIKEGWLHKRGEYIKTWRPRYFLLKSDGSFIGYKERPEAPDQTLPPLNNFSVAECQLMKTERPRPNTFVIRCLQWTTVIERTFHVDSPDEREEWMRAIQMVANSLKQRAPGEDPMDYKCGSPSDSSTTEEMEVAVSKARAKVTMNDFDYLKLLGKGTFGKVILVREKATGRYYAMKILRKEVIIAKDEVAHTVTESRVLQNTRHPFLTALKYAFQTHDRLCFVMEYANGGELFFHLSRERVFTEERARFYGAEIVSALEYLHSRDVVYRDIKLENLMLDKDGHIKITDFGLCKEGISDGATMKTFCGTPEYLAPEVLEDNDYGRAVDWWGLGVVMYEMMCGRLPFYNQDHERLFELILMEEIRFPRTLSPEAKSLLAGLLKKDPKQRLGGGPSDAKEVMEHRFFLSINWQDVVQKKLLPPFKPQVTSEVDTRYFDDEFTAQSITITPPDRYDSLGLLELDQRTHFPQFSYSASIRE

A word on the IC50: it is the midpoint of a concentration-inhibition curve. On to `NC1(c2ccc(-c3oc4cc[nH]c(=O)c4c3-c3ccccc3)cc2)CCC1` [Example 18, 2-(4-(1-Aminocyclobutyl)phenyl)-3-phenylfuro[3,2-c]pyridin-4(5H)-one], for which the IC50 is 100 to 1000 nM in assay [1], more than 10000 nM in assay [2] and 1000 to 10000 nM in assay [3].

For the molecule `NC1(c2ccc(-c3oc4cnccc4c3-c3ccccc3)cc2)CCC1` [Example 2, 1-(4-(3-Phenylfuro[2,3-c]pyridin-2-yl)phenyl)cyclobutanamine], the values for the IC50 in assay [1], in assay [2] and in assay [3] were more than 10000 nM, more than 10000 nM and 1000 to 10000 nM, respectively.

Turning to `CNc1nc2oc(-c3ccc(C4(N)CCC4)cc3)c(-c3ccccc3)c2c(=O)n1CCOC` [Example 69, 6-(4-(1-Aminocyclobutyl)phenyl)-3-(2-methoxyethyl)-2-(methylamino)-5-phenylfuro[2,3-d]pyrimidin-4(3H)-one, HCl], the IC50 was 1000 to 10000 nM in assay [1], more than 10000 nM in assay [2] and 100 to 1000 nM in assay [3].

As for `Cn1nccc1-c1cnc2oc(-c3ccc(C4(N)CCC4)cc3)c(-c3ccccc3)c2n1` [Example 137, 1-(4-(2-(1-methyl-1H-pyrazol-5-yl)-7-phenylfuro[2,3-b]pyrazin-6-yl)phenyl)cyclobutanamine], the figures for the IC50 in assay [1], in assay [2] and in assay [3] were 100 to 1000 nM, more than 10000 nM and 1000 to 10000 nM, respectively.

Consider `COc1ncc(Br)c2c(-c3ccccc3)c(-c3ccc(C4(N)CCC4)cc3)oc12` [Example 132, 1-(4-(4-Bromo-7-methoxy-3-phenylfuro[2,3-c]pyridin-2-yl)phenyl)cyclobutanamine], for which the IC50 in assay [1] is 100 to 1000 nM; in assay [2], more than 10000 nM; in assay [3], 100 to 1000 nM.

With `Cc1cnc2oc(-c3ccc(C4(N)CCC4)cc3)c(-c3ccccc3)c2n1` [Example 149, 1-(4-(2-Methyl-7-phenylfuro[2,3-b]pyrazin-6-yl)phenyl)cyclobutanamine], the half-maximal inhibitory concentration (IC50) in assay [1] was 100 to 1000 nM; in assay [2] it was more than 10000 nM; in assay [3], 1000 to 10000 nM.

Turning to `NC1(c2ccc(-c3oc4ncc(-c5ccccc5)nc4c3-c3ccccc3)cc2)CCC1` [Example 139, 1-(4-(2,7-Diphenylfuro[2,3-b]pyrazin-6-yl)phenyl)cyclobutanamine, HCl], the IC50 in assay [1], in assay [2] and in assay [3] was 1000 to 10000 nM each time.

Consider `NC(=O)c1ccc2c(-c3ccccc3)c(-c3ccc(C4(N)CCC4)cc3)oc2c1` [Example 5, 2-(4-(1-Aminocyclobutyl)phenyl)-3-phenylbenzofuran-6-carboxamide], for which the IC50 is 1000 to 10000 nM in assay [1], more than 10000 nM in assay [2] and 1000 to 10000 nM in assay [3].

Turning to `CCNc1nc(NCCO)nc2oc(-c3ccc(C4(N)CCC4)cc3)c(-c3ccccc3)c12` [Example 81, 2-(6-(4-(1-Aminocyclobutyl)phenyl)-4-(ethylamino)-5-phenylfuro[2,3-d]pyrimidin-2-ylamino)ethanol, HCl], the figures for the IC50 in assay [1], in assay [2] and in assay [3] were 100 to 1000 nM, more than 10000 nM and 1000 to 10000 nM, respectively.

`Cn1c(N2CCOCC2)nc2oc(-c3ccc(C4(N)CCC4)cc3)c(-c3ccccc3)c2c1=O` [Example 82, 6-(4-(1-Aminocyclobutyl)phenyl)-3-methyl-2-morpholino-5-phenylfuro[2,3-d]pyrimidin-4(3H)-one]: the IC50 in assay [1] fell in the range of 100 to 1000 nM; in assay [2], 1000 to 10000 nM; in assay [3], 1000 to 10000 nM.

In the case of `NC1(c2ccc(-c3oc4nc(NCCO)n(CCF)c(=O)c4c3-c3ccccc3)cc2)CCC1` [Example 110, 6-(4-(1-Aminocyclobutyl)phenyl)-3-(2-fluoroethyl)-2-(2-hydroxyethylamino)-5-phenylfuro[2,3-d]pyrimidin-4(3H)-one], the IC50 in assay [1] was 1000 to 10000 nM; in assay [2] it was 1000 to 10000 nM; in assay [3] it was not above 100 nM.

As to `Cn1ccc2c(-c3ccccc3)c(-c3ccc(C4(N)CCC4)cc3)oc2c1=O` [Example 129, 2-(4-(1-Aminocyclobutyl)phenyl)-6-methyl-3-phenylfuro[2,3-c]pyridin-7(6H)-one], the 50% inhibitory concentration (IC50) lay in the range of 100 to 1000 nM in assay [1], 1000 to 10000 nM in assay [2] and 100 to 1000 nM in assay [3].
